Results: ChEMBL document CHEMBL1201862, “PubChem BioAssay data set” (2004)
Activity calls are given as the source filed them.

What was measured:
[1] = reduction of Shn3 3'UTR-driven luciferase in osteoblasts – cell-based, Clone20 osteoblasts, firefly luciferase, cherry-picked, dose response (AID 624132); assay type: functional;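 also: firefly luciferase luminescence from reporter carrying the Shn3 3'UTR in osteoblasts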
[2] = non-specific 3'UTR reporter inhibition in Clone20-Shn3RL – cell-based, Renilla luciferase, cherry-picked, counter-screen for Shn3 inhibitor project, dose response (AID 624133); assay type: functional
[3] = target: Induced myeloid leukemia cell differentiation protein Mcl-1 (Homo sapiens, UniProt Q07820); assay type: functional
Sequence of Induced myeloid leukemia cell differentiation protein Mcl-1 (Q07820 whole entry): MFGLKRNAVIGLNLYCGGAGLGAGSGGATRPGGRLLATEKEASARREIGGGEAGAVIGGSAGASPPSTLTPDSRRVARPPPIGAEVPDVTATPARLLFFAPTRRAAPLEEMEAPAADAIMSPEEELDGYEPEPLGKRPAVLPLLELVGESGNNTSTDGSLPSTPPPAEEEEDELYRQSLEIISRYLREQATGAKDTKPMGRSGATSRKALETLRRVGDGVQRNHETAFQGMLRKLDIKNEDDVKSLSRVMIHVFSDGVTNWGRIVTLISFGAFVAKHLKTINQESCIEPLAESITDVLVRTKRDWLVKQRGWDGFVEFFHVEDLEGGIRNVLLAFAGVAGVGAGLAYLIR

[4] = cells; assay type: functional, cell-based
[5] = cells; assay type: functional, cell-based; remark: listed apart in the source
[6] = target: Cytochrome P450 3A4 (Homo sapiens, UniProt P08684); conditions: Potency;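 also: confirmatory qHTS run detecting inhibitors and substrates of CYP3A4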
Sequence of Cytochrome P450 3A4 (P08684 whole entry): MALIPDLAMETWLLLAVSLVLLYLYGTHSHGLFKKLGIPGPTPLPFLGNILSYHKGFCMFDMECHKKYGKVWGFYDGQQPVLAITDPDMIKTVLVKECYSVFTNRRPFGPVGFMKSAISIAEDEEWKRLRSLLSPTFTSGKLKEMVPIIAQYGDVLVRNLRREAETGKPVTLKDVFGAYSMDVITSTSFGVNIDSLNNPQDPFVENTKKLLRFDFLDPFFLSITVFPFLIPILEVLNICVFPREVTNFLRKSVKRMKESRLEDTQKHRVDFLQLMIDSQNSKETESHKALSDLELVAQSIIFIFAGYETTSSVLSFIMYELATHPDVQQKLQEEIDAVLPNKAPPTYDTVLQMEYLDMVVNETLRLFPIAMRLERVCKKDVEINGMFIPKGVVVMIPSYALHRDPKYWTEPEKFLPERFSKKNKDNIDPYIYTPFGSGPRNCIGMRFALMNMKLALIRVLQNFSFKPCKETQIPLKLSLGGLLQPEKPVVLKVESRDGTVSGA

[7] = general cell-killing toxicity readout – plate reader, dry powder samples, cytotoxicity control for PAX8 inhibitor project, dose response (AID 743021); assay type: functional, cell-based
[8] = target: Paired box protein Pax-8 (Homo sapiens, UniProt Q06710); assay: PAX8 transcriptional activity inhibition in RMG-I – RMG-I cells, luciferase, cherry-pick, dose response (AID 687027); assay type: functional, cell-based;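 also: luciferase reporter driven by Pax8 target thyroperoxidase promoter measured by SteadyGlo luminescence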
Sequence of Paired box protein Pax-8 (Q06710 whole entry): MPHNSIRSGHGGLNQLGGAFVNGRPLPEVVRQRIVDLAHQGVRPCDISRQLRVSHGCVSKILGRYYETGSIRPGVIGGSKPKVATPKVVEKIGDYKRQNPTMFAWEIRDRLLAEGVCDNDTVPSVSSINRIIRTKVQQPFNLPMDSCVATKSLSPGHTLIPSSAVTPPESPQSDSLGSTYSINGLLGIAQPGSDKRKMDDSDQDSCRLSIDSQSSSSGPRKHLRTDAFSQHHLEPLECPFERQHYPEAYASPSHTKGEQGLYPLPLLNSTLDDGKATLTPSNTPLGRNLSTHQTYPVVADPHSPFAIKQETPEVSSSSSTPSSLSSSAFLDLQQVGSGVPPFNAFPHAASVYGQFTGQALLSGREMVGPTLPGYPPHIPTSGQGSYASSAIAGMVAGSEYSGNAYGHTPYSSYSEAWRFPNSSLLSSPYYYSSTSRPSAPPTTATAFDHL

[9] = OVCAR8 cell viability loss – plate reader, dry powder samples, PAX8 project, dose response (AID 743197); assay type: functional, cell-based; conditions: OVCAR-8
[10] = target: Heat shock protein HSP 90-alpha (Homo sapiens, UniProt P07900); assay type: functional, organism-based
[11] = cells; assay type: functional
[12] = THP-1 cell cytotoxicity, dose response, cytotoxicity control for non-replicating M. tuberculosis project (AID 489025); assay type: functional
[13] = target: T1, Mannose-6-phosphate isomerase (Homo sapiens, UniProt P34949); assay: MPI inhibition at elevated mannose 6-phosphate – biochemical, fluorescence intensity, high mannose 6-phosphate, primary screen (AID 1220)
T1 sequence (P34949 whole entry): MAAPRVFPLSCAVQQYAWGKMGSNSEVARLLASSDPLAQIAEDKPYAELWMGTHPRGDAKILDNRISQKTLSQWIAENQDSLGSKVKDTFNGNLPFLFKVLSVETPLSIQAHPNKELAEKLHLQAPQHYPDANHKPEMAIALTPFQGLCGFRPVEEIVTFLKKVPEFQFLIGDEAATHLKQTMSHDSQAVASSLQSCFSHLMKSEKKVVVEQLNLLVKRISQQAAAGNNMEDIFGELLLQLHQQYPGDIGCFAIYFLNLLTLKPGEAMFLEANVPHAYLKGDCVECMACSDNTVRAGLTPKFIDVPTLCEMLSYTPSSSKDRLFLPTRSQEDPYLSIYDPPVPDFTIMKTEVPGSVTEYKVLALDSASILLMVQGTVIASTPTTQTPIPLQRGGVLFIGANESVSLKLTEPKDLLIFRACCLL

[14] = target: T2, Cytochrome P450 1A2 (Homo sapiens, UniProt P05177);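 also: PubChem cytochrome P450 panel assay, CYP1A2 panel member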
T2 sequence (P05177 whole entry): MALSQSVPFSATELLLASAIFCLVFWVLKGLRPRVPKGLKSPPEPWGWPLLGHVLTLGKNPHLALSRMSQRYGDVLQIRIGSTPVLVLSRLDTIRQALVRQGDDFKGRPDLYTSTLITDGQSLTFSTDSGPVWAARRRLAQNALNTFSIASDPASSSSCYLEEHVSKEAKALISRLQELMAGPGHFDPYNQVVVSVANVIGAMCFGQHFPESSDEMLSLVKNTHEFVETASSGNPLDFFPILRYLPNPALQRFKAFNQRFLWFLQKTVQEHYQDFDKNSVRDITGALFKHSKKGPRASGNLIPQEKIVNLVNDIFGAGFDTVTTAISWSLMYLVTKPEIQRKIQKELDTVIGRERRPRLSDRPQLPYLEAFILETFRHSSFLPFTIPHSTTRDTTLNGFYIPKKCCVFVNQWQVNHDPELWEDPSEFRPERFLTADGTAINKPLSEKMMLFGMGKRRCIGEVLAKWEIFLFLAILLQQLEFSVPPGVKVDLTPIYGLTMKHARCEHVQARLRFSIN

[15] = target: Genome polyprotein (dengue virus type 2, UniProt P29990); assay: flavivirus cap methylation enzyme inhibition – biochemical, confirmation dose response, primary screen (AID 588689); assay type: functional
Sequence of Genome polyprotein (P29990 2492-3391 limits assumed): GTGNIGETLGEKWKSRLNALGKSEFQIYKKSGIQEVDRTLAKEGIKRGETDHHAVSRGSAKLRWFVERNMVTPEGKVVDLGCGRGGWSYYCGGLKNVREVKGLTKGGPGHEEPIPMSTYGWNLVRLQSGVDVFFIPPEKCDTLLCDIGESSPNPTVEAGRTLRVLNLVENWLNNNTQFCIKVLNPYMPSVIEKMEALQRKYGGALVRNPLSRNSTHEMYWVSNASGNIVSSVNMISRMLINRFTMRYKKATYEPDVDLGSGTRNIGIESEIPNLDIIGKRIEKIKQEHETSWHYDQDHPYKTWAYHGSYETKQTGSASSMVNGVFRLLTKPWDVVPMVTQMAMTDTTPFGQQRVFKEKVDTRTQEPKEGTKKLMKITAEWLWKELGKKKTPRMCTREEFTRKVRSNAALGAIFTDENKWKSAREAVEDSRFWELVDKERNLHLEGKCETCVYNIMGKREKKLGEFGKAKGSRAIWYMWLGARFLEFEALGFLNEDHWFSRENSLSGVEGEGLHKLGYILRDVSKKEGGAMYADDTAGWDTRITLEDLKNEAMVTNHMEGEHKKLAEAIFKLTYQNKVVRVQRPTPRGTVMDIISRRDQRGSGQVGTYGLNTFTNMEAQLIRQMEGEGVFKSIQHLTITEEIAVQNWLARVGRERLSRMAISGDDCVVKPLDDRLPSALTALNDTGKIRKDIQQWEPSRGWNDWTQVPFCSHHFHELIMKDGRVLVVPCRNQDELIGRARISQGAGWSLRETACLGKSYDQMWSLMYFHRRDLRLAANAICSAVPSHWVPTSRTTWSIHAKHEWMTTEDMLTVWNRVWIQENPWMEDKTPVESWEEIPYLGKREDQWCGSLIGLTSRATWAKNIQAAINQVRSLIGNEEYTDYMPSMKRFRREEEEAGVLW

[16] = target: T3, Leucine aminopeptidase (Plasmodium falciparum 3D7, UniProt Q8IL11); assay: P. falciparum M17LAP inhibitors, primary screen, biochemical, fluorogenic H-Leu-NHMec substrate, 1536-well (AID 1619); assay type: functional
T3 sequence (Q8IL11 whole entry): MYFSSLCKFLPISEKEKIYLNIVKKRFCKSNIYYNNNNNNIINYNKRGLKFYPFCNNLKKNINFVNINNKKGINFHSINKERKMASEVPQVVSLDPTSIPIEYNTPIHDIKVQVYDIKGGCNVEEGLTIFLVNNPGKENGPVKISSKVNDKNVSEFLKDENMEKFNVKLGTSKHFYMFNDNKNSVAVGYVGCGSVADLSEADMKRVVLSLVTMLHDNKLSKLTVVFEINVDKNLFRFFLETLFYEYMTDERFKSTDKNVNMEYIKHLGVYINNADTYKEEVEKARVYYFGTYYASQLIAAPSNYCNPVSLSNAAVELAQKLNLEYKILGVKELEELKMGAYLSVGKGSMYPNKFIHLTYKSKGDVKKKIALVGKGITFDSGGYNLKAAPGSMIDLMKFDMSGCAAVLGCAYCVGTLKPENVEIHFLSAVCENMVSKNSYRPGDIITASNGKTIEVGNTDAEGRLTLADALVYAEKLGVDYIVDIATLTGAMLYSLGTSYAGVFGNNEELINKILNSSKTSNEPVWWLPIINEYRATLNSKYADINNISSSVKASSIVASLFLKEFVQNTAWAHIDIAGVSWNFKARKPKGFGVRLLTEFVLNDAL

[17] = HIV-1 AD8 envelope cell-cell fusion blockers – cherry-pick, dose response (AID 652062); assay type: functional, cell-based;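 also: luciferase signal from cell-cell fusion driven by HIV-1 clade B AD8 Env; potency is for inhibitors of fusion seen as a drop in luminescence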
[18] = off-target signal loss in HeLa-CEM21 co-culture – HeLa F-luc CTL cells, cherry-picked, counter-screen for HIV-1 Env fusion inhibitor project, dose response (AID 652040); assay type: functional, cell-based;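 also: potency for signal decrease marking cytotoxic or nonspecific inhibition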
[19] = blockers of HIV-1 envelope-mediated cell-cell fusion – cherry-pick, dose response (AID 652057); assay type: functional, cell-based
[20] = blockers of HIV-1 ZM109 envelope-driven cell-cell fusion – HeLa effector, CEM target cells, luciferase, cherry-pick, dose response (AID 652058); assay type: functional, cell-based;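 also: luciferase signal from HIV-1 Env mediated cell-cell fusion of effector and target cells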

Compound: CCCCCCN1C[C@H](n2cc(-c3ccc(F)cc3)nn2)[C@@H](O)C[C@@H]1c1ccc(Cl)cc1
- AC50 [1]: 10.3 µM (active)
- AC50 [2]: 25.8 µM (active)

Compound: CN(C)c1ccc(NC(=O)/C=C/c2ccccc2Cl)cc1
- IC50 [3]: > 54 µM (active)

Compound: COc1ccc(OC)c(NC(=O)CCc2nnc3ccc(NCc4ccco4)nn23)c1
- EC50 [4]: > 350 µM (not active)
- EC50 [5]: > 350 µM (not active)

Compound: COCCNc1nc(C)nc2c1nc(-c1ccccc1)n2CCCN1CCCCC1C (stereo not drawn)
- AC50 [6]: 3.98 µM (inconclusive)

Compound: CCCNC(=O)Nc1ccc2c(c1)OC[C@@H](C)N(Cc1ccc(-c3ccccn3)cc1)C[C@@H](C)[C@H](OC)CN(C)C2=O
- AC50 [7]: 41.7 µM (active)
- AC50 [8]: 30.1 µM (active)

Compound: C[C@@H]1CCCCO[C@@H](CN(C)Cc2ccccc2)[C@H](C)CN([C@H](C)CO)C(=O)c2cc(NC(=O)Nc3ccc(C(F)(F)F)cc3)ccc2O1
- AC50 [9]: > 70 µM (inactive)
- AC50 [8]: 4.61 µM (active)

Compound: COc1ccc(-c2nnc(SCC(=O)Oc3ccc(C)cc3)o2)cc1
- AC50 [10]: 2.53 µM (active)

Compound: CN1CC(=O)N=C1NC(=O)C12CC3CC(CC(C3)C1)C2
- IC50 [11]: 23.9 µM (active)
- CC50 [12]: > 40 µM (active)

Compound: CCOc1cc2c(C#N)c(N3CCCCC3)nc(N)c2c(N)n1
- IC50 [13]: > 50 µM (not active)

Compound: COC(=O)c1cccc(C23CC4(C2)[C@H](CN(C)[C@@H]4c2ccccc2)C3c2ccc(Cl)nc2)c1 (stereo partly drawn)
- AC50 [6]: 5.01 µM (inconclusive)

Compound: COc1ccccc1N1CCN(CCCNC(=O)C2CCCN(c3ncnc4c3nc3n4CCCCC3)C2)CC1 (stereo not drawn)
- EC50 [4]: > 350 µM (not active)
- EC50 [5]: > 350 µM (not active)

Compound: Cc1cc(=O)oc2c3c(cc(OCC(=O)Nc4ccc(CCO)cc4)c12)OC(C)(C)CC3
- AC50 [1]: > 70 µM (inactive)
- AC50 [2]: > 70 µM (inactive)

Compound: CN(CCO)c1nc(N)c2c(N)nc3c(c2c1C#N)CC(=O)N3C1CCCC1
- AC50 [14]: 2.82 µM (inconclusive)
- IC50 [13]: > 50 µM (not active)

Compound: COC(=O)c1cc(OC)c(=O)c2c(OC)c(OC)ccc2c1 [METHYL 7-DESOXYPURPUROGALLIN-7-CARBOXYLATE TRIMETHYL ETHER]
- AC50 [6]: 39.8 µM (inconclusive)

Compound: NC(=S)NNC(=O)c1cc(C(F)(F)F)cc(C(F)(F)F)c1
- EC50 [4]: > 350 µM (not active)
- EC50 [5]: > 350 µM (not active)

Compound: Cc1nnc(C)n1/N=C/c1cc(Br)cc(Br)c1O
- AC50 [10]: 1.68 µM (active)

Compound: COC(=O)c1ccc(N2C(=O)CC(N3CCC(O)(c4ccc(Br)cc4)CC3)C2=O)cc1 (stereo not drawn)
- AC50 [10]: 2.85 µM (active)

Compound: CCOC(=O)c1c(-c2ccc(C)c(C)c2)csc1NC(=O)C1CC=CCC1C(=O)O (stereo not drawn)
- IC50 [15]: 43.5 µM (active)
- IC50 [16]: 10.3 µM (active)

Compound: CC1(C)CCC2(C(=O)O)CC[C@]3(C)C(=CCC4[C@]5(C)CCC(O)C(C)(C)C5C(O)C[C@]43C)C2C1 (stereo partly drawn)
- AC50 [6]: 2.51 µM (inconclusive)

Compound: O=c1cc(-c2ccccc2O)oc2c(O)c(O)ccc12
- AC50 [6]: 31.6 µM (inconclusive)

Compound: COCCN1C(=O)Cc2c1nc(N)c1c(N)nc(N3CCN(c4ccc(F)cc4)CC3)c(C#N)c21
- IC50 [13]: > 50 µM (not active)

Compound: CC1(C)CC[C@]2(C(=O)O)CC[C@]3(C)C(=CCC4[C@@]5(C)CC[C@H](O)C(C)(C)C5[C@H](O)C[C@]43C)C2C1 (stereo partly drawn)
- AC50 [6]: 25.1 µM (inconclusive)

Compound: CCCCCCC(=O)N(O)C1CC(=O)N(c2ccc(Cl)cc2)C1=O (stereo not drawn)
- AC50 [10]: 1.64 µM (active)

Compound: CC1(Cc2ccc(Cl)cc2)C(=O)Nc2ccc(S(=O)(=O)NC3CCCCC3)cc21 (stereo not drawn)
- AC50 [17]: 0.674 µM (active)
- AC50 [18]: 1.04 µM (active)
- AC50 [19]: 0.396 µM (active)
- AC50 [20]: 1.12 µM (active)

Compound: CCN(/N=C/c1ccc(N(C)C)cc1)c1nc2ccccc2[nH]1
- IC50 [3]: 1.44 µM (active)

Compound: CCc1ccc(NC(=O)COC(=O)c2cccs2)cc1
- EC50 [4]: 79.4 µM (active)
- EC50 [5]: > 350 µM (not active)

Compound: CCOc1ccc(N2C(=O)CC(Sc3nc(C)cc(C)n3)C2=O)cc1 (stereo not drawn)
- EC50 [4]: > 350 µM (not active)
- EC50 [5]: > 350 µM (not active)

Compound: COC(=O)C1(C(=O)OC)C[C@H](c2ccc(OC)cc2)N(Cc2ccccc2OC)[C@@H]1c1ccccc1
- AC50 [17]: 8.22 µM (active)
- AC50 [18]: 2.48 µM (active)
- AC50 [19]: 1.37 µM (active)
- AC50 [20]: 1.58 µM (active)

Compound: CC(C)(O)C(=O)Nc1ccc([N+](=O)[O-])c(C(F)(F)F)c1 [HYDROXYFLUTAMIDE]
- AC50 [6]: 25.1 µM (inconclusive)

Compound: COc1cccc(C(=O)Nc2cc(Cl)c(O)c(Cl)c2)c1
- IC50 [3]: 3.46 µM (not active)
